For 25 compounds, EC50 results are on record in patent US12655125B2 (SIRONAX LTD., priority 2020, dated 2026).

This experiment has as its system HT-29 cells. As to the kind of experiment: HT29 Cells 0FBS Assay In Vitro (TNF-α/SMAC mimetic/zVAD-FMK induced necroptosis, CellTiter-Glo cell viability). The experiment is classed as cell-based. The conditions noted are these: Homo sapiens; HT-29 cells, FBS free medium, TNF-α (10 ng/ml), SMAC mimetic (6 uM), zVAD-FMK (10 μM), 20 hours; geometric mean EC50; read-out: Cell activity (EC50) of Compounds 117-281. In outline: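 HT-29 cells (5,000/well, seeded overnight) in serum-free McCoy's 5A were stimulated with TNF-α 10 ng/ml, SMAC mimetic 6 μM and zVAD-FMK 10 μM to induce necroptosis. Compound added as 10-point 3-fold series for 20 h at 37° C. CellTiter-Glo luminescence gives viability; EC50 is geometric mean of duplicate dose-responses.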
On the technique in general: ATP-based viability assays read luminescence as a measure of living cells.
By EC50 is commonly meant the midpoint of the concentration-response curve. In the case of `CSc1nn(C)c(-c2cc(OC3CN(C(=O)N4N=CC[C@H]4c4cc(F)cc(F)c4)C3)c(F)cn2)c1C` [compound 176, (S)-(5-(3,5-difluorophenyl)-4,5-dihydro-1H-pyrazol-1-yl)(3-((2-(1,4-dimethyl-3-(methylthio)-1H-pyrazol-5-yl)-5-fluoropyridin-4-yl)oxy)azetidin-1-yl)methanone], the concentration for a half-maximal effect (EC50) was in the range of 0.1 to 100 nM.

Turning to `Cc1c(S(C)(=O)=O)nn(C)c1-c1cc(OC2CN(C(=O)N3N=CC[C@H]3c3cc(F)cc(F)c3)C2)c(F)cn1` [compound 177, (5-(3,5-difluorophenyl)-4,5-dihydro-1H-pyrazol-1-yl)(3-((2-(1,4-dimethyl-3-(methylsulfonyl)-1H-pyrazol-5-yl)-5-fluoropyridin-4-yl)oxy)azetidin-1-yl)methanone], the half-maximal effective concentration (EC50) fell in the range of 0.1 to 100 nM.

For `CC(O)c1cnn(C)c1-c1cc(OC2CN(C(=O)N3N=CC[C@H]3c3cc(F)cc(F)c3)C2)c(F)cn1` (stereo partly drawn) [compound 179, ((S)-5-(3,5-difluorophenyl)-4,5-dihydro-1H-pyrazol-1-yl)(3-((5-fluoro-2-(4-(1-hydroxyethyl)-1-methyl-1H-pyrazol-5-yl)pyridin-4-yl)oxy)azetidin-1-yl)methanone], the EC50 lay in the range of 100 to 1000 nM. The value for `Cc1nc(CO)sc1-c1cc(OC2CN(C(=O)N3N=CC[C@H]3c3cc(F)cc(F)c3)C2)c(F)cn1` [compound 180, (S)-(5-(3,5-difluorophenyl)-4,5-dihydro-1H-pyrazol-1-yl)(3-((5-fluoro-2-(2-(hydroxymethyl)-4-methylthiazol-5-yl)pyridin-4-yl)oxy)azetidin-1-yl)methanone] was 0.1 to 100 nM; that for `Cc1nn(C2CCNCC2)c(C)c1-c1cc(OC2CN(C(=O)N3N=CC[C@H]3c3cc(F)cc(F)c3)C2)c(F)cn1` [compound 181] was 0.1 to 100 nM.

Take `Cc1cnc(C)n1-c1cc(OC2CN(C(=O)N3N=CC[C@H]3c3cc(F)cc(F)c3)C2)c(F)cn1` [compound 182, (S)-(5-(3,5-difluorophenyl)-4,5-dihydro-1H-pyrazol-1-yl)(3-((2-(2,5-dimethyl-1H-imidazol-1-yl)-5-fluoropyridin-4-yl)oxy)azetidin-1-yl)methanone]: the EC50 was in the range of 0.1 to 100 nM. For `Cc1nn(-c2cc(OC3CN(C(=O)N4N=CC[C@H]4c4cc(F)cc(F)c4)C3)c(F)cn2)c(C)c1C(=O)N1CCCCC1` [compound 183, (S)-(5-(3,5-difluorophenyl)-4,5-dihydro-1H-pyrazol-1-yl)(3-((2-(3,5-dimethyl-4-(piperidine-1-carbonyl)-1H-pyrazol-1-yl)-5-fluoropyridin-4-yl)oxy)azetidin-1-yl)methanone], the EC50 was in the range of 0.1 to 100 nM.

In the case of `Cc1nn(-c2cc(OC3CN(C(=O)N4N=CC[C@H]4c4cc(F)cc(F)c4)C3)c(F)cn2)c(C)c1C(=O)N1CCOCC1` [compound 184, (S)-(5-(3,5-difluorophenyl)-4,5-dihydro-1H-pyrazol-1-yl)(3-((2-(3,5-dimethyl-4-(morpholine-4-carbonyl)-1H-pyrazol-1-yl)-5-fluoropyridin-4-yl)oxy)azetidin-1-yl)methanone], the EC50 fell in the range of 0.1 to 100 nM. The value for `Cc1cnn(C)c1-c1ccc(F)c(OC2CN(C(=O)N3N=CC[C@H]3c3cc(F)cc(F)c3)C2)n1` [compound 185, (S)-(5-(3,5-difluorophenyl)-4,5-dihydro-1H-pyrazol-1-yl)(3-((6-(1,4-dimethyl-1H-pyrazol-5-yl)-3-fluoropyridin-2-yl)oxy)azetidin-1-yl)methanone] was 0.1 to 100 nM; that for `Cc1c(C#N)nn(C)c1-c1ccc(F)c(OC2CN(C(=O)N3N=CC[C@H]3c3cc(F)cc(F)c3)C2)n1` [compound 186, (S)-5-(6-((1-(5-(3,5-difluorophenyl)-4,5-dihydro-1H-pyrazole-1-carbonyl)azetidin-3-yl)oxy)-5-fluoropyridin-2-yl)-1,4-dimethyl-1H-pyrazole-3-carbonitrile] was 0.1 to 100 nM; that for `Cc1nn(S(C)(=O)=O)c(C)c1-c1cc(OC2CN(C(=O)N3N=CC[C@H]3c3cc(F)cc(F)c3)C2)c(F)cn1` [compound 187, (S)-(5-(3,5-difluorophenyl)-4,5-dihydro-1H-pyrazol-1-yl)(3-((2-(3,5-dimethyl-1-(methylsulfonyl)-1H-pyrazol-4-yl)-5-fluoropyridin-4-yl)oxy)azetidin-1-yl)methanone] was 0.1 to 100 nM.

Regarding `Cc1nc(C#N)sc1-c1cc(OC2CN(C(=O)N3N=CC[C@H]3c3cc(F)cc(F)c3)C2)c(F)cn1` [compound 188, (S)-5-(4-((1-(5-(3,5-difluorophenyl)-4,5-dihydro-1H-pyrazole-1-carbonyl)azetidin-3-yl)oxy)-5-fluoropyridin-2-yl)-4-methylthiazole-2-carbonitrile], the 50% effective concentration (EC50) was in the range of 0.1 to 100 nM.

`Cc1nc(C(N)=O)sc1-c1cc(OC2CN(C(=O)N3N=CC[C@H]3c3cc(F)cc(F)c3)C2)c(F)cn1` [compound 189, (S)-5-(4-((1-(5-(3,5-difluorophenyl)-4,5-dihydro-1H-pyrazole-1-carbonyl)azetidin-3-yl)oxy)-5-fluoropyridin-2-yl)-4-methylthiazole-2-carboxamide]: the EC50 fell in the range of 0.1 to 100 nM. As for `Cc1nn(-c2cc(OC3CN(C(=O)N4N=CC[C@H]4c4cc(F)cc(F)c4)C3)c(F)cn2)c(C)c1S(C)(=O)=O` [compound 190, (S)-(5-(3,5-difluorophenyl)-4,5-dihydro-1H-pyrazol-1-yl)(3-((2-(3,5-dimethyl-4-(methylsulfonyl)-1H-pyrazol-1-yl)-5-fluoropyridin-4-yl)oxy)azetidin-1-yl)methanone], the figure is 0.1 to 100 nM. Regarding `Cc1[nH]c(C(N)=O)c(C)c1-c1cc(OC2CN(C(=O)N3N=CC[C@H]3c3cc(F)cc(F)c3)C2)c(F)cn1` [compound 191, (S)-4-(4-((1-(5-(3,5-difluorophenyl)-4,5-dihydro-1H-pyrazole-1-carbonyl)azetidin-3-yl)oxy)-5-fluoropyridin-2-yl)-3,5-dimethyl-1H-pyrrole-2-carboxamide], the half-maximal effective concentration (EC50) was 0.1 to 100 nM.

On to `Cc1nn(-c2cc(OC3CN(C(=O)N4N=CC[C@H]4c4cc(F)cc(F)c4)C3)c(F)cn2)c(C)c1C(=O)N(C)C` [compound 192, (S)-1-(4-((1-(5-(3,5-difluorophenyl)-4,5-dihydro-1H-pyrazole-1-carbonyl)azetidin-3-yl)oxy)-5-fluoropyridin-2-yl)-N,N,3,5-tetramethyl-1H-pyrazole-4-carboxamide], for which the EC50 was 0.1 to 100 nM.

As for `CNC(=O)c1c(C)nn(-c2cc(OC3CN(C(=O)N4N=CC[C@H]4c4cc(F)cc(F)c4)C3)c(F)cn2)c1C` [compound 193, (S)-1-(4-((1-(5-(3,5-difluorophenyl)-4,5-dihydro-1H-pyrazole-1-carbonyl)azetidin-3-yl)oxy)-5-fluoropyridin-2-yl)-N,3,5-trimethyl-1H-pyrazole-4-carboxamide], the half-maximal effective concentration (EC50) is 0.1 to 100 nM. The value for `Cc1nn(-c2cc(OC3CN(C(=O)N4N=CC[C@H]4c4cc(F)cc(F)c4)C3)c(F)cn2)c(C)c1C(=O)N1CCCC1` [compound 194, (S)-(5-(3,5-difluorophenyl)-4,5-dihydro-1H-pyrazol-1-yl)(3-((2-(3,5-dimethyl-4-(pyrrolidine-1-carbonyl)-1H-pyrazol-1-yl)-5-fluoropyridin-4-yl)oxy)azetidin-1-yl)methanone] was 0.1 to 100 nM.

Consider `Cc1nn(-c2cc(OC3CN(C(=O)N4N=CC[C@H]4c4cc(F)cc(F)c4)C3)c(F)cn2)c(C)c1C(=O)N1CCC1` [compound 195, (S)-azetidin-1-yl(1-(4-((1-(5-(3,5-difluorophenyl)-4,5-dihydro-1H-pyrazole-1-carbonyl)azetidin-3-yl)oxy)-5-fluoropyridin-2-yl)-3,5-dimethyl-1H-pyrazol-4-yl)methanone], for which the concentration for a half-maximal effect (EC50) fell in the range of 0.1 to 100 nM. The value for `Cc1c(C(N)=O)nn(C)c1-c1ccc(F)c(OC2CN(C(=O)N3N=CC[C@H]3c3cc(F)cc(F)c3)C2)n1` [compound 196, (S)-5-(6-((1-(5-(3,5-difluorophenyl)-4,5-dihydro-1H-pyrazole-1-carbonyl)azetidin-3-yl)oxy)-5-fluoropyridin-2-yl)-1,4-dimethyl-1H-pyrazole-3-carboxamide] was 0.1 to 100 nM. The value for `Cc1cnn(C)c1-c1ccc(F)c(OC2CN(C(=O)N3N=CC[C@H]3c3cc(F)cc(F)c3)C2)c1` [compound 197, (S)-(5-(3,5-difluorophenyl)-4,5-dihydro-1H-pyrazol-1-yl)(3-(5-(1,4-dimethyl-1H-pyrazol-5-yl)-2-fluorophenoxy)azetidin-1-yl)methanone] was 0.1 to 100 nM. In the case of `Cc1n[nH]c(C)c1-c1ccc(F)c(OC2CN(C(=O)N3N=CC[C@H]3c3cc(F)cc(F)c3)C2)c1` [compound 198, (S)-(5-(3,5-difluorophenyl)-4,5-dihydro-1H-pyrazol-1-yl)(3-(5-(3,5-dimethyl-1H-pyrazol-4-yl)-2-fluorophenoxy)azetidin-1-yl)methanone], the EC50 is 0.1 to 100 nM. As for `Cc1nc(C#N)c(C)n1-c1cc(OC2CN(C(=O)N3N=CC[C@H]3c3cc(F)cc(F)c3)C2)c(F)cn1` [compound 199, (S)-1-(4-((1-(5-(3,5-difluorophenyl)-4,5-dihydro-1H-pyrazole-1-carbonyl)azetidin-3-yl)oxy)-5-fluoropyridin-2-yl)-2,5-dimethyl-1H-imidazole-4-carbonitrile], the half-maximal effective concentration (EC50) lay in the range of 0.1 to 100 nM. The value for `Cc1nc(C(N)=O)c(C)n1-c1cc(OC2CN(C(=O)N3N=CC[C@H]3c3cc(F)cc(F)c3)C2)c(F)cn1` [compound 200, (S)-1-(4-((1-(5-(3,5-difluorophenyl)-4,5-dihydro-1H-pyrazole-1-carbonyl)azetidin-3-yl)oxy)-5-fluoropyridin-2-yl)-2,5-dimethyl-1H-imidazole-4-carboxamide] was 0.1 to 100 nM; that for `Cn1nc(CF)nc1-c1cc(OC2CN(C(=O)N3N=CC[C@H]3c3cc(F)cc(F)c3)C2)c(F)cn1` [compound 201, (S)-(5-(3,5-difluorophenyl)-4,5-dihydro-1H-pyrazol-1-yl)(3-((5-fluoro-2-(3-(fluoromethyl)-1-methyl-1H-1,2,4-triazol-5-yl)pyridin-4-yl)oxy)azetidin-1-yl)methanone] was 0.1 to 100 nM.
